Assay results as given in the NIST ThermoML archive (doi:10.1021/je7003963).

Test: mn = molality of the nth substance listed, in mol/kg
Conditions: 293.15 K; for speed of sound / mass density: 101 kPa, Liquid; for speed of sound: Sing-around technique in a fixed-path interferometer; for mass density: Vibrating tube method

Cl.Cl.OCCN1CCN(CCCN2c3ccccc3Sc3ccc(C(F)(F)F)cc32)CC1 [fluphenazine dihydrochloride] + O
Conditions	mass density [kg/m3]	speed of sound [m/s]	surface tension liquid-gas [mN/m]
m1 = 0.001	–	–	59.1
m1 = 0.002	–	–	57.9
m1 = 0.003	–	–	54.5
m1 = 0.004	–	–	51.1
m1 = 0.005	–	–	49
m1 = 0.006	–	–	49.9
m1 = 0.00605	999.199	1484.1	–
m1 = 0.007	–	–	47.7
m1 = 0.00716	999.381	1484.6	–
m1 = 0.00794	999.509	1484.8	–
m1 = 0.008	–	–	45.9
m1 = 0.00898	999.679	1485.1	–
m1 = 0.01001	999.848	1485.3	–
m1 = 0.01999	1001.44	1487.5	–
m1 = 0.025	–	–	44.3
m1 = 0.02935	1002.91	1489.3	–
m1 = 0.04	1004.55	1491.5	44.6
m1 = 0.0506	1006.17	1492.8	–
m1 = 0.05999	1007.59	1494.4	–
m1 = 0.075	–	–	44
m1 = 0.0803	1010.64	1496.9	–
m1 = 0.1	1013.53	1499	44.5
m1 = 0.1248	1017.05	1501.5	–
m1 = 0.125	–	–	44.1
m1 = 0.149	1020.45	1503.8	–
m1 = 0.15	–	–	44.6
m1 = 0.1752	1023.98	1506.3	–

CN1CCN(CCCN2c3ccccc3Sc3ccc(C(F)(F)F)cc32)CC1.Cl.Cl [trifluoperazine dihydrochloride] + O
Conditions	mass density [kg/m3]	speed of sound [m/s]	surface tension liquid-gas [mN/m]
m1 = 0.003	–	–	58.1
m1 = 0.004	–	–	55.1
m1 = 0.005	–	–	51.4
m1 = 0.006	–	–	51.1
m1 = 0.007	–	–	49.6
m1 = 0.0079	999.369	1484.1	–
m1 = 0.008	–	–	47.7
m1 = 0.00895	999.513	1484.3	–
m1 = 0.009	–	–	47.7
m1 = 0.01	–	–	46.5
m1 = 0.011	999.803	1484.7	–
m1 = 0.01547	1000.45	1485.5	–
m1 = 0.02109	1001.24	1486.4	–
m1 = 0.025	–	–	46
m1 = 0.0286	1002.31	1487.8	–
m1 = 0.03996	1003.91	1489.8	–
m1 = 0.0492	1005.18	1491.3	–
m1 = 0.05	–	–	46.5
m1 = 0.06004	1006.67	1493	–
m1 = 0.075	–	–	45.9
m1 = 0.07991	1009.39	1496.2	–
m1 = 0.09979	1012.03	1498.3	–
m1 = 0.1	–	–	46.6
m1 = 0.1248	1015.25	1500.6	–
m1 = 0.125	–	–	46.5
m1 = 0.1496	1018.45	1502.9	–
m1 = 0.15	–	–	45.9
m1 = 0.1737	1021.45	1505.1	–
m1 = 0.1994	1024.63	1507.3	–
m1 = 0.2245	1027.65	1509.5	–
m1 = 0.2494	1030.56	1511.7	–
m1 = 0.2749	1033.52	1513.6	–
m1 = 0.2998	1036.3	1515.8	–
